# Results from EPA's CvTdb concentration-time database.
# Key:
# Rat [1] = experiment: concentration in liver after dosing; settings: 0.5 h; dosed: Potassium Perfluorobutane Sulfonate; 20 mg/kg; oral; Male; Harlan Sprague Dawley
# Rat [2] = experiment: concentration in kidney after dosing; settings: 6 h; dosed: Potassium Perfluorobutane Sulfonate; 20 mg/kg; oral; Female; Harlan Sprague Dawley
# Rat [3] = experiment: concentration in liver after dosing; settings: 1 h; dosed: Potassium Perfluorobutane Sulfonate; 20 mg/kg; oral; Male; Harlan Sprague Dawley
# Rat [4] = experiment: concentration in brain after dosing; settings: 1 h; dosed: Potassium Perfluorobutane Sulfonate; 20 mg/kg; oral; Male; Harlan Sprague Dawley
# Rat [5] = experiment: concentration in kidney after dosing; settings: 12 h; dosed: Potassium Perfluorobutane Sulfonate; 20 mg/kg; oral; Male; Harlan Sprague Dawley
# Rat [6] = experiment: concentration in plasma after dosing; settings: 0.5 h; dosed: Potassium Perfluorobutane Sulfonate; 4 mg/kg; iv; Male; F344
# Rat [7] = experiment: concentration in plasma after dosing; settings: 1.5 h; dosed: Potassium Perfluorobutane Sulfonate; 4 mg/kg; iv; Male; F344
# Rat [8] = experiment: concentration in plasma after dosing; settings: dosed: Potassium Perfluorobutane Sulfonate, 4 mg/kg, oral, Male, Harlan Sprague Dawley
# Mouse [9] = experiment: concentration in plasma after dosing; settings: 0.25 h; dosed: 2-Hydroxy-4-methoxybenzophenone; 250 mg/kg; oral; Male; B6C3F1
# Mouse [10] = experiment: concentration in plasma after dosing; settings: 3 h; dosed: 2-Hydroxy-4-methoxybenzophenone; 50 mg/kg; iv; Male; B6C3F1
# Rat [11] = experiment: concentration in plasma after dosing; settings: dosed: 2-Hydroxy-4-methoxybenzophenone, 8 mg/kg, iv, Male, F344
# Rat [12] = experiment: concentration in plasma after dosing; settings: dosed: 2-Hydroxy-4-methoxybenzophenone, 100 mg/kg, oral, Female, F344
# Mouse [13] = experiment: concentration in plasma after dosing; settings: 0.25 h; dosed: 2-Hydroxy-4-methoxybenzophenone; 250 mg/kg; oral; Male; B6C3F1; remark: listed apart in the source
# Rat [14] = experiment: concentration in plasma after dosing; settings: dosed: 2-Hydroxy-4-methoxybenzophenone, 250 mg/kg, oral, Female, F344
# Mouse [15] = experiment: concentration in plasma after dosing; settings: 2 h; dosed: 2-Hydroxy-4-methoxybenzophenone; 250 mg/kg; oral; Male; B6C3F1
# Mouse [16] = experiment: concentration in plasma after dosing; settings: 0.25 h; dosed: 2-Hydroxy-4-methoxybenzophenone; 50 mg/kg; iv; Male; B6C3F1
# Rat [17] = experiment: concentration in liver after dosing; settings: 3 h; dosed: Perfluorooctanoic acid; 80 mg/kg; oral; Female; Harlan Sprague Dawley
# Rat [18] = experiment: concentration in plasma after dosing; settings: dosed: 678-39-7, 40 mg/kg, iv, Female, Harlan Sprague-Dawley
# Rat [19] = experiment: concentration in liver after dosing; settings: 48 h; dosed: Perfluorooctanoic acid; 80 mg/kg; oral; Female; Harlan Sprague Dawley
# Rat [20] = experiment: concentration in liver after dosing; settings: 3 h; dosed: Fluorotelomer alcohol 8+2; 80 mg/kg; oral; Female; Harlan Sprague Dawley
# Rat [21] = experiment: concentration in brain after dosing; settings: 12 h; dosed: Perfluorooctanoic acid; 80 mg/kg; oral; Female; Harlan Sprague Dawley
# Rat [22] = experiment: concentration in brain after dosing; settings: 6 h; dosed: Perfluorooctanoic acid; 12 mg/kg; oral; Male; Harlan Sprague Dawley
# Rat [23] = experiment: concentration in liver after dosing; settings: 24 h; dosed: Perfluorooctanoic acid; 12 mg/kg; oral; Male; Harlan Sprague Dawley
# Rat [24] = experiment: concentration in plasma after dosing; settings: dosed: Fluorotelomer alcohol 8+2, 12 mg/kg, oral, Male, Harlan Sprague Dawley
# Rat [25] = experiment: concentration in kidney after dosing; settings: 6 h; dosed: Fluorotelomer alcohol 8+2; 24 mg/kg; oral; Male; Harlan Sprague Dawley
# Rat [26] = experiment: concentration in kidney after dosing; settings: 6 h; dosed: Fluorotelomer alcohol 8+2; 80 mg/kg; oral; Female; Harlan Sprague Dawley
# Rat [27] = experiment: concentration in liver after dosing; settings: 1200 h; dosed: Perfluorooctanoic acid; 12 mg/kg; oral; Male; Harlan Sprague Dawley
# Rat [28] = experiment: concentration in liver after dosing; settings: 528 h; dosed: Perfluorooctanoic acid; 12 mg/kg; oral; Male; Harlan Sprague Dawley
# Rat [29] = experiment: concentration in kidney after dosing; settings: 528 h; dosed: Perfluorooctanoic acid; 12 mg/kg; oral; Male; Harlan Sprague Dawley
# Rat [30] = experiment: concentration in kidney after dosing; settings: 6 h; dosed: Perfluorooctanoic acid; 80 mg/kg; oral; Female; Harlan Sprague Dawley
# Rat [31] = experiment: concentration in kidney after dosing; settings: 1200 h; dosed: Perfluorooctanoic acid; 12 mg/kg; oral; Male; Harlan Sprague Dawley
# Rat [32] = experiment: concentration in plasma after dosing; settings: dosed: Fluorotelomer alcohol 8+2, 12 mg/kg, oral, Male, Harlan Sprague Dawley; remark: listed apart in the source
# Rat [33] = experiment: concentration in plasma after dosing; settings: 2 min; dosed: Nitrite; 80 mg/kg; oral; Female; F344
# Rat [34] = experiment: concentration in plasma after dosing; settings: 0.5 h; dosed: Nitrite; 80 mg/kg; oral; Female; F344
# Rat [35] = experiment: concentration in plasma after dosing; settings: 10 min; dosed: Nitrite; 80 mg/kg; oral; Female; F344
# Rat [36] = experiment: concentration in plasma after dosing; settings: dosed: Nitrite, 80 mg/kg, oral, Female, F344
# Rat [37] = experiment: concentration in plasma after dosing; settings: dosed: Nitrite, 20 mg/kg, iv, Male, F344
# Rat [38] = experiment: concentration in plasma after dosing; settings: 10 min; dosed: Nitrite; 40 mg/kg; oral; Female; F344
# Rat [39] = experiment: concentration in plasma after dosing; settings: dosed: Nitrite, 20 mg/kg, iv, Male, F344; remark: listed apart in the source
structure (smiles),measurement,setting,value
O=S(=O)([O-])C(F)(F)C(F)(F)C(F)(F)C(F)(F)F.[K+] [Potassium Perfluorobutane Sulfonate],concentration in liver,Rat [1],62000 ng/g
same,concentration in kidney,Rat [2],587 ng/g
same,concentration in liver,Rat [3],110000 ng/g
same,concentration in brain,Rat [4],1030 ng/g
same,concentration in kidney,Rat [5],3890 ng/g
same,concentration in plasma,Rat [6],12000 ng/mL
same,concentration in plasma,Rat [7],11400 ng/mL
same,concentration in plasma,Rat [8]; 5 min,398 ng/mL
same,concentration in plasma,Rat [8]; 3 h,11700 ng/mL
COc1ccc(C(=O)c2ccccc2)c(O)c1 [2-Hydroxy-4-methoxybenzophenone],concentration in plasma,Mouse [9],231 ng/mL
same,concentration in plasma,Mouse [10],175 ng/mL
same,concentration in plasma,Rat [11]; 10 min,3770 ng/mL
same,concentration in plasma,Rat [11]; 10 h,8.52 ng/mL
same,concentration in plasma,Rat [12]; 0.25 h,100 ng/mL
same,concentration in plasma,Rat [12]; 4 h,16.3 ng/mL
same,concentration in plasma,Mouse [13],289 ng/mL
same,concentration in plasma,Rat [14]; 10 min,26.9 ng/mL
same,concentration in plasma,Rat [14]; 3 h,95.6 ng/mL
same,concentration in plasma,Mouse [15],55.1 ng/mL
same,concentration in plasma,Mouse [16],7110 ng/mL
O=C(O)C(F)(F)C(F)(F)C(F)(F)C(F)(F)C(F)(F)C(F)(F)C(F)(F)F [Perfluorooctanoic acid],concentration in liver,Rat [17],32900 ng/g
same,concentration in plasma,Rat [18]; 0.75 h,1470 ng/mL
same,concentration in plasma,Rat [18]; 12 h,372 ng/mL
same,concentration in liver,Rat [19],616 ng/g
same,concentration in liver,Rat [20],2170 ng/g
same,concentration in brain,Rat [21],1280 ng/g
same,concentration in brain,Rat [22],1350 ng/g
same,concentration in liver,Rat [23],60800 ng/g
same,concentration in plasma,Rat [24]; 48 h,614 ng/mL
same,concentration in plasma,Rat [24]; 192 h,399 ng/mL
same,concentration in kidney,Rat [25],381 ng/g
same,concentration in kidney,Rat [26],2040 ng/g
same,concentration in liver,Rat [27],4980 ng/g
same,concentration in liver,Rat [28],19500 ng/g
same,concentration in kidney,Rat [29],6860 ng/g
same,concentration in kidney,Rat [30],175000 ng/g
same,concentration in kidney,Rat [31],1110 ng/g
same,concentration in plasma,Rat [32]; 48 h,657 ng/mL
same,concentration in plasma,Rat [32]; 192 h,424 ng/mL
O=N[O-] [Nitrite],concentration in plasma,Rat [33],2900 ng/mL
same,concentration in plasma,Rat [34],69300 ng/mL
same,concentration in plasma,Rat [35],22900 ng/mL
same,concentration in plasma,Rat [36]; 10 min,10800 ng/mL
same,concentration in plasma,Rat [36]; 6 h,1700 ng/mL
same,concentration in plasma,Rat [37]; 20 min,2600 ng/mL
same,concentration in plasma,Rat [37]; 1.5 h,2000 ng/mL
same,concentration in plasma,Rat [38],8500 ng/mL
same,concentration in plasma,Rat [39]; 5 min,12600 ng/mL
same,concentration in plasma,Rat [39]; 1 h,3100 ng/mL
